Laboratory results as given in patent publication US10344017B2, “Pyrrolcarboxamide derivatives for the inhibition of ERK5” (CANCER RESEARCH TECHNOLOGY LIMITED, priority 2014, dated 2019).

These compounds were tested against T1, ERK5 (Homo sapiens, UniProt Q13164) (assay: ERK5 IMAP assay (fluorescence polarisation)). Conditions: not given.
T1 construct: made in house
Type: biochemical

T1 sequence (Q13164 whole entry): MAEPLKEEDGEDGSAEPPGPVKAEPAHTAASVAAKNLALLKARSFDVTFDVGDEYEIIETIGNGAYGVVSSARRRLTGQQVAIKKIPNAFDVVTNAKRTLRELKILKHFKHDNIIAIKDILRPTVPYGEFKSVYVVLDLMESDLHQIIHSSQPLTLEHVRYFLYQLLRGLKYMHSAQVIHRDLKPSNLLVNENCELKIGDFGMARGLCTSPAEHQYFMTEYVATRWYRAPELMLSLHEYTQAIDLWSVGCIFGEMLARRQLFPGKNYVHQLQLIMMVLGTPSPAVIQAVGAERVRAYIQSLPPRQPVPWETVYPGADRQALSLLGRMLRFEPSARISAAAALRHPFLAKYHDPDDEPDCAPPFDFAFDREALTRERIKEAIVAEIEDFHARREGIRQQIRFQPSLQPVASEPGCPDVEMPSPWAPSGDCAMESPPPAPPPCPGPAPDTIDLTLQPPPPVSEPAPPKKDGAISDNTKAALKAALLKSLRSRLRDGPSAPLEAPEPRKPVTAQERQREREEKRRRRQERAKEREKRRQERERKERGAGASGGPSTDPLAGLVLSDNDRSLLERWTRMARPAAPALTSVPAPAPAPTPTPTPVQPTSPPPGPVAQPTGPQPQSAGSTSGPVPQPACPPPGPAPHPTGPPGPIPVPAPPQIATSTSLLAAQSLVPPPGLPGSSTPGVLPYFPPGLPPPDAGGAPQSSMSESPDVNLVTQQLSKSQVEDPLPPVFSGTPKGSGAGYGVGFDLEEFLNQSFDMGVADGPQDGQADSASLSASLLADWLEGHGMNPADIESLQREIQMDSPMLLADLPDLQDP

| IC50 [nM] | SMILES |
| --- | --- |
| 900 | O=C(Nc1ccncc1)c1cc(C(=O)c2c(F)cccc2F)c[nH]1 [Example 121, 4-(2,6-Difluorobenzoyl)-N-(pyridin-4-yl)-1H-pyrrole-2-carboxamide] |

Same assay, conditions: average (e.g. geometric mean) where more than one data point; read-out: ERK5 IC50

| IC50 [nM] | SMILES |
| --- | --- |
| 34200 | O=C(Nc1cc[nH]c(=O)n1)c1cc(C(=O)c2c(F)cccc2Br)c[nH]1 [Example 147, 4-(2-Bromo-6-fluorobenzoyl)-N-(2-oxo-1,2-dihydropyrimidin-4-yl)-1H-pyrrole-2-carboxamide] |
| 530 | O=C(Nc1ccc(CO)nc1)c1cc(C(=O)c2c(F)cccc2Cl)c[nH]1 [Example 119, 4-(2-chloro-6-fluorobenzoyl)-N-(6-(hydroxymethyl)pyridin-3-yl)-1H-pyrrole-2-carboxamide] |
| 18.1 | COc1ccc(Cl)c(C(=O)c2c[nH]c(C(=O)Nc3cnc(CC4CCN(C)CC4)nc3)c2)c1F [Example 247, 4-(6-Chloro-2-fluoro-3-methoxybenzoyl)-N-(2-((1-methylpiperidin-4-yl)methyl)pyrimidin-5-yl)-1H-pyrrole-2-carboxamide] |
| 1580 | CCc1ncccc1NC(=O)c1cc(C(=O)c2c(F)cccc2Cl)c[nH]1 [Example 76, 4-(2-Chloro-6-fluorobenzoyl)-N-(2-ethylpyridin-3-yl)-1H-pyrrole-2-carboxamide] |
| 4130 | Cc1cc(NC(=O)c2cc(C(=O)c3c(F)cccc3Cl)c[nH]2)nc(C)n1 [Example 142, 4-(2-Chloro-6-fluorobenzoyl)-N-(2,6-dimethylpyrimidin-4-yl)-1H-pyrrole-2-carboxamide] |
| 20 | CN(c1ncc(NC(=O)c2cc(C(=O)c3c(Cl)ccc(Cl)c3F)c[nH]2)cn1)C1CCNCC1 [Example 106, 4-(3,6-Dichloro-2-fluorobenzoyl)-N-(2-(methyl(piperidin-4-yl)amino)pyrimidin-5-yl)-1H-pyrrole-2-carboxamide] |
| 203 | CCOc1ccc(Cl)c(C(=O)c2c[nH]c(C(=O)Nc3cnn(C)c3)c2)c1F [Example 257, 4-(6-Chloro-3-ethoxy-2-fluorobenzoyl)-N-(1-methyl-1H-pyrazol-yl)-1H-pyrrole-2-carboxamide] |
| 1260 | Cc1ccncc1NC(=O)c1cc(C(=O)c2c(F)cccc2Cl)c[nH]1 [Example 87, 4-(2-Chloro-6-fluorobenzoyl)-N-(4-methylpyridin-3-yl)-1H-pyrrole-2-carboxamide] |
| 1190 | COCCOc1ccc(Cl)c(C(=O)c2c[nH]c(C(=O)Nc3cnn(C)c3)c2)c1F [Example 260, 4-(6-Chloro-2-fluoro-3-(2-methoxyethoxy)benzoyl)-N-(1-methyl-1H-pyrazol-4-yl)-1H-pyrrole-2-carboxamide] |
| 1800 | O=C(Nc1ccncn1)c1cc(C(=O)c2c(F)cccc2Br)c[nH]1 [Example 133, 4-(2-Bromo-6-fluorobenzoyl)-N-(pyrimidin-4-yl)-1H-pyrrole-2-carboxamide] |
| 23.8 | CN1CCC(Nc2ccc(NC(=O)c3cc(C(=O)c4c(Cl)ccc(Cl)c4F)c[nH]3)cn2)CC1 [Example 32, 4-(3,6-Dichloro-2-fluorobenzoyl)-N-(6-((1-methylpiperidin-4-yl)amino)pyridin-3-yl)-1H-pyrrole-2-carboxamide] |
| 1670 | CCc1ccncc1NC(=O)c1cc(C(=O)c2c(Cl)ccc(Cl)c2F)c[nH]1 [Example 94, 4-(3,6-Dichloro-2-fluorobenzoyl)-N-(4-ethylpyridin-3-yl)-1H-pyrrole-2-carboxamide] |
| 1830 | COc1cc(NC(=O)c2cc(C(=O)c3c(F)cccc3Cl)c[nH]2)ccn1 [Example 40, 4-(2-Chloro-6-fluorobenzoyl)-N-(2-methoxypyridin-4-yl)-1H-pyrrole-2-carboxamide] |
| 80.7 | O=C(Nc1cnn(Cc2ccccn2)c1)c1cc(C(=O)c2c(Cl)ccc(Cl)c2F)c[nH]1 [Example 48, 4-(3,6-Dichloro-2-fluorobenzoyl)-N-(1-(pyridin-2-ylmethyl)-1H-pyrazol-4-yl)-1H-pyrrole-2-carboxamide] |
| 1260 | O=C(Nc1cccnc1)c1cc(C(=O)c2c(Cl)ccc(OC(CCl)CCl)c2F)c[nH]1 [Example 271, 4-(6-Chloro-3-((1,3-dichloropropan-2-yl)oxy)-2-fluorobenzoyl)-N-(pyridin-3-yl)-1H-pyrrole-2-carboxamide] |
| 117 | COCCN(CCOC)Cc1ccc(NC(=O)c2cc(C(=O)c3c(Cl)ccc(Cl)c3F)c[nH]2)cn1 [Example 283, N-(6-((bis(2-methoxyethyl)amino)methyl)pyridin-3-yl)-4-(3,6-dichloro-2-fluorobenzoyl)-1H-pyrrole-2-carboxamide] |
| 11500 | O=C(Nc1cc[n+]([O-])cc1)c1cc(C(=O)c2c(F)cccc2F)c[nH]1 [Example 127, 4-(4-(2,6-Difluorobenzoyl)-1H-pyrrole-2-carboxamido)pyridine 1-oxide] |
| 21 | O=C(Nc1cnn(Cc2ccncc2)c1)c1cc(C(=O)c2c(Cl)ccc(Cl)c2F)c[nH]1 [Example 50, 4-(3,6-Dichloro-2-fluorobenzoyl)-N-(1-(pyridin-4-ylmethyl)-1H-pyrazol-4-yl)-1H-pyrrole-2-carboxamide] |
| 2190 | COc1ccncc1NC(=O)c1cc(C(=O)c2c(F)cccc2Cl)c[nH]1 [Example 90, 4-(2-Chloro-6-fluorobenzoyl)-N-(4-methoxypyridin-3-yl)-1H-pyrrole-2-carboxamide] |
| 7450 | O=Cc1ccc(F)c(C(=O)c2c[nH]c(C(=O)Nc3cccnc3)c2)c1F [Example 265, 4-(2,6-difluoro-3-formylbenzoyl)-N-(pyridin-3-yl)-1H-pyrrole-2-carboxamide] |

| IC50 [nM] | SMILES |
| --- | --- |
| 483 | O=C(Nc1cccnc1)c1cc(C(=O)c2c(Cl)ccc(OC3CCOC3)c2F)c[nH]1 (stereo not shown) [Example 259, 4-(6-Chloro-2-fluoro-3-((tetrahydrofuran-3-yl)oxy)benzoyl)-N-(pyridin-3-yl)-1H-pyrrole-2-carboxamide] |
| 611 | O=C(NC1CCNCC1)c1cc(C(=O)c2c(F)ccc(F)c2F)c[nH]1 [Example 208, N-(Piperidin-4-yl)-4-(2,3,6-trifluorobenzoyl)-1H-pyrrole-2-carboxamide] |
| 7980 | O=C(Nc1cccnc1N1CCCC1)c1cc(C(=O)c2c(F)cccc2Cl)c[nH]1 [Example 80, 4-(2-Chloro-6-fluorobenzoyl)-N-(2-(pyrrolidin-1-yl)pyridin-3-yl)-1H-pyrrole-2-carboxamide] |
| 86.6 | O=C(Nc1cnn(C2COC2)c1)c1cc(C(=O)c2c(Cl)ccc(Cl)c2F)c[nH]1 [Example 239, 4-(3,6-Dichloro-2-fluorobenzoyl)-N-(1-(oxetan-3-yl)-1H-pyrazol-4-yl)-1H-pyrrole-2-carboxamide] |
| 343 | O=C(Nc1ccnc(N2CCOCC2)c1)c1cc(C(=O)c2c(Cl)ccc(Cl)c2F)c[nH]1 [Example 38, 4-(3,6-Dichloro-2-fluorobenzoyl)-N-(2-morpholinopyridin-4-yl)-1H-pyrrole-2-carboxamide] |
| 636 | CN1CCC(NC(=O)c2cc(C(=O)c3c(F)ccc(F)c3Cl)c[nH]2)CC1 [Example 216, 4-(2-Chloro-3,6-difluorobenzoyl)-N-(1-methylpiperidin-4-yl)-1H-pyrrole-2-carboxamide] |
| 368 | Cc1cc(NC(=O)c2cc(C(=O)c3c(F)cccc3Cl)c[nH]2)cc(C)n1 [Example 134, 4-(2-Chloro-6-fluorobenzoyl)-N-(2,6-dimethylpyridin-4-yl)-1H-pyrrole-2-carboxamide] |
| 20.7 | CN1CCC(N(C)c2ncc(NC(=O)c3cc(C(=O)c4c(Cl)ccc(Cl)c4F)c[nH]3)cn2)CC1 [Example 105, 4-(3,6-Dichloro-2-fluorobenzoyl)-N-(2-(methyl(1-methylpiperidin-4-yl)amino)pyrimidin-5-yl)-1H-pyrrole-2-carboxamide] |
| 654 | O=C(Nc1cncnc1)c1cc(C(=O)c2c(F)cccc2Br)c[nH]1 [Example 145, 4-(2-Bromo-6-fluorobenzoyl)-N-(pyrimidin-5-yl)-1H-pyrrole-2-carboxamide] |
| 226 | O=C(Nc1cncnc1)c1cc(C(=O)c2c(F)ccc(Cl)c2F)c[nH]1 [Example 211, 4-(3-Chloro-2,6-difluorobenzoyl)-N-(pyrimidin-5-yl)-1H-pyrrole-2-carboxamide] |
| 2570 | Cc1cccc(F)c1C(=O)c1c[nH]c(C(=O)Nc2cccnc2)c1 [Example 186, 4-(2-Fluoro-6-methylbenzoyl)-N-(pyridin-3-yl)-1H-pyrrole-2-carboxamide] |
| 1050 | CCc1ncccc1NC(=O)c1cc(C(=O)c2c(Cl)ccc(Cl)c2F)c[nH]1 [Example 82, 4-(3,6-Dichloro-2-fluorobenzoyl)-N-(2-ethylpyridin-3-yl)-1H-pyrrole-2-carboxamide] |
| 283 | CN1CCC(NC(=O)c2cc(C(=O)c3c(F)ccc(Cl)c3Cl)c[nH]2)CC1 [Example 171, 4-(2,3-Dichloro-6-fluorobenzoyl)-N-(1-methylpiperidin-4-yl)-1H-pyrrole-2-carboxamide] |
| 1750 | CNc1ncc(NC(=O)c2cc(C(=O)c3c(F)cccc3Cl)c[nH]2)cn1 [Example 12, 4-(2-Chloro-6-fluorobenzoyl)-N-(2-(methylamino)pyrimidin-5-yl)-1H-pyrrole-2-carboxamide] |
| 628 | Cc1ccc(F)c(C(=O)c2c[nH]c(C(=O)NC3CCNCC3)c2)c1F [Example 219, 4-(2,6-Difluoro-3-methylbenzoyl)-N-(piperidin-4-yl)-1H-pyrrole-2-carboxamide] |
| 53.8 | COc1ccc(Cl)c(C(=O)c2c[nH]c(C(=O)Nc3cnn(Cc4ccccn4)c3)c2)c1F [Example 65] |
| 9660 | CC(=O)OC1CCN(c2ncc(NC(=O)c3cc(C(=O)c4c(Cl)ccc(Cl)c4F)c[nH]3)cn2)CC1 [Example 22, 1-(5-(4-(3,6-Dichloro-2-fluorobenzoyl)-1H-pyrrole-2-carboxamido)pyrimidin-2-yl)piperidin-4-yl acetate] |
| 2310 | CCOc1ccncc1NC(=O)c1cc(C(=O)c2c(F)cccc2Cl)c[nH]1 [Example 91, 4-(2-Chloro-6-fluorobenzoyl)-N-(4-ethoxypyridin-3-yl)-1H-pyrrole-2-carboxamide] |
| 483 | Cc1ccncc1NC(=O)c1cc(C(=O)c2c(Cl)ccc(Cl)c2F)c[nH]1 [Example 93, 4-(3,6-Dichloro-2-fluorobenzoyl)-N-(4-methylpyridin-3-yl)-1H-pyrrole-2-carboxamide] |
